Results: patent publication US20260364184A1, “COMPOUND BASED ON OXOISOINDOLINYL-SUBSTITUTED TETRAHYDROPYRIMIDINE-DIONE AND USE THEREOF” (GLUETACS THERAPEUTICS (SHANGHAI) CO., LTD., priority 2023, published 2026)
Like-named read-outs stand apart in the source and are kept apart here. One block for each compound: values may come before it.

Key:
[1] = test system: Human B-Cell Lymphoma Cells (RPMI-8226); test: Inhibition of RPMI-8226 cell proliferation (CellTiter luminescent viability); format: cell-based; settings: RPMI-8226, 500 nM, read-out: Inhibition Rate at 500 nM (%)
Experimental: (§1) The tumor cells used herein were cultured in a cell culture medium listed in table 3 at 37 °C in an incubator with 5% CO2. Prior to experimentation, all cell lines used were correctly identified by STR profiling, and tested negative for mycoplasma contamination using a mycoplasma detection kit through routine screenings.
(§2) The IC50 values of the compounds of the present disclosure (including the compounds in Table 1, Table 2, and Examples 1-468) were determined using the CellTiter-Meiluncell Luminescent Cell Viability Assay Kit from Dalian Meilun Biotech Co., Ltd. The detailed procedure is as follows: Tumor cells were seeded in 96-well cell culture plates at the densities specified in Table 4. On the following day, the test compounds of the present disclosure were subjected to serial dilution. The dilution can be performed according to one of the following two methods: • (1) The first dilution method: The test compounds of the present disclosure (including the compounds in Table 1, Table 2, and Examples 1-468) were subjected to 5-fold serial dilutions starting from a highest concentration of 2000 μM, resulting in a total of 9 concentrations from high to low (2000, 400, 80, 16, 3.2, 0.64, 0.128, 0.0256, 0.00512 μM). Subsequently, 0.5 μL of the test compound dilution was transferred into the 96-well plate containing the cells, with each well containing 100 μL of cell culture medium. […] Into the 96-well plate, the diluted test compounds and corresponding detection reagents were added, resulting in final test compound concentrations of 500 nM and 10 nM, respectively. The experimental procedure is described below using the diluted 2 μM test compound as an example.
(§3) 0.5 μL of the aforementioned diluted compound of the present disclosure (including the compounds in Table 1, Table 2, and Examples 1-468) was added to the seeded cells in 100 μL of medium, yielding a final test compound concentration of 10 nM. After the cells were treated with the compounds of the present disclosure for a specified period, the cell viability assay reagent was added to the culture medium according to the kit's instructions to determine cell viability. […] All controls were treated using the same procedure as the compounds of the present disclosure. The growth inhibition curves for the compounds of the present disclosure were plotted using Prism GraphPad software, and the IC50 values were calculated therefrom.

[2] = as above; format: cell-based; settings: Homo sapiens, read-out: Inhibition Rate at 10 nM (%)
Experimental: as §1, §2, §3

[3] = test system: Human large cell immunoblastic lymphoma cell line SR; test: Inhibition of SR cell proliferation (CellTiter luminescent viability); format: cell-based; settings: Table IB1, ALK inhibitor-based, 96 hours, read-out: Inhibitory activity (IC50, nM) on tumor cell proliferation, SR
Experimental: as §1, §2, §3

[4] = molecular target: T1, human Cereblon WT GST-tagged protein (CRBN) (Homo sapiens, UniProt Q96SW2); test: CRBN binding by HTRF (Cereblon binding kit)
T1 construct: purchased CISBIO 64BDCRBNPEH
T1 sequence (Q96SW2 whole entry): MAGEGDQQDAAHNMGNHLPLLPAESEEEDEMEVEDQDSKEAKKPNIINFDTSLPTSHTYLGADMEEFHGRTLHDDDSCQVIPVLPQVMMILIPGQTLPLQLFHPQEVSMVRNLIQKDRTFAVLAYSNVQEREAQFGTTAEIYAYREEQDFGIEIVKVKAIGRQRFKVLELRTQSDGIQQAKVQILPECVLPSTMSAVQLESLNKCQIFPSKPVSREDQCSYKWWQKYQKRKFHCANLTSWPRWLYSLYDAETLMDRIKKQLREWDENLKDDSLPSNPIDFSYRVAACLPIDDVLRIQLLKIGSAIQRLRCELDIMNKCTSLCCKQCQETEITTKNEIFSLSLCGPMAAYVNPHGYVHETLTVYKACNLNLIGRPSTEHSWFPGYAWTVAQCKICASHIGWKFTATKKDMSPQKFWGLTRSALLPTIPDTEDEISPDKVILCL
Experimental: The CEREBLON BINDING kits (specification: 10,000 tests; product number: Catalog #64BDCRBNPEH; CISBIO company) was used to determine the CRBN binding ability of the compounds to be tested through a HTRF method (homogeneous time-resolved fluorescence). The specific methods are as follows: • 1. According to the instructions of the CEREBLON BINDING KITS, serial dilutions were performed for the test compounds of the present disclosure (including the compounds in Table 1, Table 2, and Examples 1-468) and for lenalidomide. Specifically, diluent #9 (1×) solution was used as the diluent, and multiple concentration gradients were set. The dilution operation can be performed according to one of the following two methods: • (1) The first dilution method: The test compounds of the present disclosure (including the compounds in Table 1, Table 2, and Examples 1-468) were subjected to 5-fold serial dilutions starting from a highest concentration of 40 μM, resulting in a total of 7 concentrations from high to low (40, 8, 1.6, 0.32, 0.064, 0.0128, 0.00256 μM). Subsequently, the diluted test compounds and corresponding detection reagents were added to each well of a 96-well plate, resulting in final test compound concentrations of 10, 2, 0.4, 0.08, 0.016, 0.0032, and 0.00064 μM, respectively. • (2) As an alternative, a second dilution method can be used: The test compounds of the present disclosure (including the compounds in Table 1, Table 2, and Examples 1-468) were subjected to 4-fold gradient dilutions starting from a highest concentration of 8 μM, resulting in 2 concentrations (8 μM, 2 μM). Into the 96-well plate, the diluted test compounds and corresponding detection reagents were added, resulting in final test compound concentrations of 2 μM and 0.5 μM, respectively. The experimental procedure is described below using the diluted 8 μM test compound and lenalidomide solutions as examples. • 2. 2.5 μL of the above 8 μM of the tested compounds and lenalidomide solution, as well as the same volume of diluent #9 (1×) solution (solvent control group, Std0) were added to each well of a 96-well plate, respectively. Then, 2.5 μL of human Cereblon WT GST-tagged protein solution was added to each well. Finally, 5 μL of the thoroughly mixed Thalidomide-Re reagent and GST Eu antibody working solution were added to each of the aforementioned wells. The final concentration of the tested compounds and lenalidomide in each well was 2 μM. • 3. The blank control wells were sequentially added with 2.5 μL of diluent #9 (1×) solution, 2.5 μL of PROTAC binding buffer, and 5 μL of thoroughly mixed Thalidomide-Re reagent and GST Eu antibody working solution. • 4. After sealing and incubating the solutions in the aforementioned wells at room temperature for 3 hours, the absorbance values at emission wavelengths of 620 nm and 665 nm were detected by the HTRF method using a Spark microplate reader (V3.1 SP1).
The corresponding CRBN binding inhibition rate was calculated using the following method:
Rcompound=OD 665 nmcompound/OD 620 nmcompound−OD 665 nmcontrol/OD 620 nmcontrol
RStd0=OD 665 nmStd0/OD 620 nmStd0−OD 665 nmcontrol/OD 620 nmcontrol inhibition rate (%)=(1−Rcompound/RStd0)*100
Note: OD 665 nmcompound is the absorbance value of each well of the compounds to be tested of the present disclosure at an emission wavelength of 665 nm. OD 620 nmcompound is the absorbance value of each well of the compounds to be tested of the present disclosure at an emission wavelength of 620 nm. OD 665 nmcontrol is the absorbance value of the blank control well at an emission wavelength of 665 nm. OD 620 nmcontrol is the absorbance value of the blank control well at an emission wavelength of 620 nm. OD 665 nmStd0 is the absorbance value of the solvent control well at an emission wavelength of 665 nm. OD 620 nmStd0 is the absorbance value of the solvent control well at an emission wavelength of 620 nm.

[5] = test system: Human acute lymphocytic leukemia T lymphocytes cell line (CCRF-CEM); test: Inhibition of CCRF-CEM cell proliferation (CellTiter luminescent viability); format: cell-based; settings: Homo sapiens, 96 h, Table IF2, AR inhibitor-based; for inhibition at 0.01 µM: 10 nM, read-out: Inhibition Rate at 10 nM (%); for inhibition at 0.5 µM: 500 nM, read-out: Inhibition Rate at 500 nM (%)
Experimental: as §1, §2, §3

[6] = test system: Human T lymphocytic leukemia cell line (Jurkat); test: Inhibition of Jurkat cell proliferation (CellTiter luminescent viability); format: cell-based; settings: Homo sapiens, Table IF3, AR inhibitor-based, 96 hours; for inhibition at 0.01 µM: 10 nM, read-out: Inhibition Rate at 10 nM (%); for inhibition at 0.5 µM: 500 nM, read-out: Inhibition Rate at 500 nM (%)
Experimental: as §1, §2, §3

[7] = test system: Human diffuse large B-cell lymphoma cell line (TMD8); test: Inhibition of TMD8 cell proliferation (CellTiter luminescent viability); format: cell-based; settings: Homo sapiens, TMD8, 96 h, Table IF1, AR inhibitor-based; for inhibition at 0.01 µM: TMD8, 10 nM, read-out: Inhibition Rate at 10 nM (%); for inhibition at 0.5 µM: TMD8, 500 nM, read-out: Inhibition Rate at 500 nM (%)
Experimental: as §1, §2, §3

Structure (SMILES): CC(C)(O)c1cc2nn(C3CCN(Cc4ccc5c(c4)C(=O)N(N4CCC(=O)NC4=O)C5=O)CC3)cc2cc1NC(=O)c1cccc(C(F)(F)F)n1 [GT-05752, N-(2-(1-((2-(2,4-dioxotetrahydropyrimidin-1(2H)-yl)-1,3-dioxoisoindolin-5-yl)methyl)piperidin-4-yl)-6-(2-hydroxypropan-2-yl)-2H-indazol-5-yl)-6-(trifluoromethyl) picolinamide]
inhibition at 0.5 µM ([1]; Table IA4, IRAK4 inhibitor-based, 96 hours): 25 to 30%
inhibition at 0.01 µM ([2]; Table IA4, IRAK4 inhibitor-based, RPMI-8226, 10 nM, 96 hours): 15 to 20%

IC50 [3]: 1000 to 5000 nM
Inhibition Rate at 0.5 μM (%) ([4]; 0.5 μM): a (0% < a ≤ 10%)
Inhibition Rate at 2 μM (%) ([4]; 2 μM): a1 (10% < a1 ≤ 20%)
Structure (SMILES): COc1cc(N2CCC(N3CCN(C)CC3)CC2)ccc1Nc1ncc(Cl)c(Nc2ccccc2P(C)(C)=O)n1 [brigatinib, Brigatinib, reference compound]

Structure (SMILES): N#CC1(CNc2nc(-c3cc(NC4CCN(CC5CCN(c6cccc7c6C(=O)N(N6CCC(=O)NC6=O)C7=O)CC5)CC4)ncc3Cl)cs2)CCOCC1 [GT-08345, 4-(((4-(5-chloro-2-((1-((1-(2-(2,4-dioxotetrahydropyrimidin-1(2H)-yl)-1,3-dioxoisoindolin-4-yl)piperidin-4-yl)methyl)piperidin-4-yl)amino)pyridin-4-yl)thiazol-2-yl)amino)methyl)tetrahydro-2H-pyran-4-carbonitrile]
inhibition at 0.5 µM [1]: 5 to 10%
inhibition at 0.01 µM ([2]; RPMI-8226, 10 nM): 20 to 30%

Structure (SMILES): N#Cc1ccc(O[C@H]2CC[C@H](NC(=O)c3ccc(N4CCC(CN5CCN(C6CCN(c7ccc8c(c7)C(=O)N(N7CCC(=O)NC7=O)C8=O)CC6(F)F)CC5)CC4)nn3)CC2)cc1Cl (stereo partly shown) [GT-05235, N-((1r,4r)-4-(3-chloro-4-cyanophenoxy)cyclohexyl)-6-(4-((4-(1-(2-(2,4-dioxotetrahydropyrimidin-1(2H)-yl)-1,3-dioxoisoindolin-5-yl)-3,3-difluoropiperidin-4-yl)piperazin-1-yl)methyl)piperidin-1-yl)pyridazine-3-carboxamide]
inhibition at 0.01 µM [5]: 10 to 15%
inhibition at 0.5 µM [5]: 30 to 40%
inhibition at 0.01 µM [6]: 5 to 10%
inhibition at 0.5 µM [6]: 30 to 40%
inhibition at 0.01 µM [7]: 5 to 10%
inhibition at 0.5 µM [7]: 35 to 40%

Structure (SMILES): CNC(=O)c1ccc(N2C(=S)N(c3ccc(C#N)c(C(F)(F)F)c3)C(=O)C2(C)C)cc1F [Enzalutamide, reference compound]
inhibition at 0.01 µM [5]: 0 to 5%
inhibition at 0.5 µM [5]: 0 to 5%
inhibition at 0.01 µM [6]: 5 to 10%
inhibition at 0.5 µM [6]: 5 to 10%
inhibition at 0.01 µM [7]: 10 to 15%
inhibition at 0.5 µM [7]: 10 to 15%

Structure (SMILES): N#Cc1ccc(O[C@H]2CC[C@H](NC(=O)c3ccc(N4CCC(CN5CCN(c6cccc7c6C(=O)N(N6CCC(=O)NC6=O)C7=O)CC5)CC4)nn3)CC2)cc1Cl [GT-05230, N-((1r,4r)-4-(3-chloro-4-cyanophenoxy)cyclohexyl)-6-(4-((4-(2-(2,4-dioxotetrahydropyrimidin-1(2H)-yl)-1,3-dioxoisoindolin-4-yl)piperazin-1-yl)methyl)piperidin-1-yl)pyridazine-3-carboxamide]
inhibition at 0.01 µM [5]: 10 to 15%
inhibition at 0.5 µM [5]: 20 to 30%
inhibition at 0.01 µM [6]: 10 to 15%
inhibition at 0.5 µM [6]: 20 to 30%
inhibition at 0.01 µM [7]: 5 to 10%
inhibition at 0.5 µM [7]: 20 to 25%

Structure (SMILES): N#Cc1ccc(O[C@H]2CC[C@H](NC(=O)c3ccc(N4CCC(CN5C[C@H]6C[C@@H]5CN6c5ccc6c(c5)C(=O)N(N5CCC(=O)NC5=O)C6=O)CC4)nn3)CC2)cc1Cl [GT-05227, N-((1r,4r)-4-(3-chloro-4-cyanophenoxy)cyclohexyl)-6-(4-(((1R,4R)-5-(2-(2,4-dioxotetrahydropyrimidin-1(2H)-yl)-1,3-dioxoisoindolin-5-yl)-2,5-diazabicyclo[2.2.1]heptan-2-yl)methyl)piperidin-1-yl)pyridazine-3-carboxamide]
inhibition at 0.01 µM [5]: 20 to 30%
inhibition at 0.5 µM [5]: 20 to 30%
inhibition at 0.01 µM [6]: 5 to 10%
inhibition at 0.5 µM [6]: 20 to 30%
inhibition at 0.01 µM [7]: 15 to 20%
inhibition at 0.5 µM [7]: 25 to 30%

Structure (SMILES): N#Cc1ccc(O[C@H]2CC[C@H](NC(=O)c3ccc(N4CCC(CN5CC6CC(C5)N6c5ccc6c(c5)C(=O)N(N5CCC(=O)NC5=O)C6=O)CC4)nn3)CC2)cc1Cl [GT-05231, N-((1r,4r)-4-(3-chloro-4-cyanophenoxy)cyclohexyl)-6-(4-((6-(2-(2,4-dioxotetrahydropyrimidin-1(2H)-yl)-1,3-dioxoisoindolin-5-yl)-3,6-diazabicyclo[3.1.1]heptan-3-yl)methyl)piperidin-1-yl)pyridazine-3-carboxamide]
inhibition at 0.01 µM [5]: 5 to 10%
inhibition at 0.5 µM [5]: 30 to 40%
inhibition at 0.01 µM [6]: 10 to 15%
inhibition at 0.5 µM [6]: 30 to 40%
inhibition at 0.01 µM [7]: 5 to 10%
inhibition at 0.5 µM [7]: 40 to 60%
